Measured values published in ChEMBL document CHEMBL1142372, “Design, synthesis, and structure-activity relationship studies of 4-quinolinyl- and 9-acrydinylhydrazones as potent antimalarial agents” (J Med Chem, 2008).
Calls of active or inactive are those of the source. The calls are words filed in the database; no cut-off is given here.

Experiments:
Plasmodium falciparum [1] = assay: Antiplasmodial activity against chloroquine-sensitive Plasmodium falciparum D10 by [3H]hypoxanthine incorporation; assay type: functional, organism-based
Plasmodium falciparum [2] = assay: Antiplasmodial activity against chloroquine-resistant Plasmodium falciparum W2 by [3H]hypoxanthine incorporation; assay type: functional, organism-based
Plasmodium falciparum [3] = assay: Antiplasmodial activity against chloroquine-sensitive Plasmodium falciparum 3D7 by [3H]hypoxanthine incorporation; assay type: functional, organism-based
Plasmodium falciparum [4] = assay: Antiplasmodial activity against chloroquine-resistant Plasmodium falciparum K1 by [3H]hypoxanthine incorporation; assay type: functional, organism-based
Plasmodium berghei = assay: Antimalarial activity against Plasmodium berghei ANKA infected BALB/c mice (Mus musculus) as reduced parasitaemia at 30 mg/kg intraperitoneal dose after 4 days; assay type: functional; parameters: scale not given: the % may be the effect or the level left
KB = assay: Cytotoxicity against human KB cells; assay type: functional; conditions: read-out: ED50 (the source's name)
Mus musculus = assay: Survival of Plasmodium Berghei ANKA infected BALB/c mice (Mus musculus) at 30 mg/kg, intraperitoneally; assay type: functional, organism-based; parameters: dose 30 mg/kg
[5] = target: T1, Histidine-rich protein PFHRP-II (Plasmodium falciparum) (UniProt P05227); assay: Inhibition of beta-hematin formation by BHIA; assay type: functional
T1 sequence (whole entry): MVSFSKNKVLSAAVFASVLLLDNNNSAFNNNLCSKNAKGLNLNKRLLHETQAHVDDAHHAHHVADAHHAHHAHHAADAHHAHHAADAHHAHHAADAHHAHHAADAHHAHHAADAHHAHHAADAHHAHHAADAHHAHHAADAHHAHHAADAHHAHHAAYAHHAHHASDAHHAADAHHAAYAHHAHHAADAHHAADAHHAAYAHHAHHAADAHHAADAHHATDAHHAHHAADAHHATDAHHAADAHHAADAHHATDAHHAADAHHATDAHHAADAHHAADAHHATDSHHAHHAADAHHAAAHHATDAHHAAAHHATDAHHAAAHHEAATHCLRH

Row | Structure (SMILES) | IC50 (Plasmodium falciparum [1]) [nM] | IC50 (Plasmodium falciparum [2]) [nM] | IC50 (Plasmodium falciparum [3]) [nM] | IC50 (Plasmodium falciparum [4]) [nM] | Activity (Plasmodium berghei) [%] | EC50 (KB) [nM] | Activity (Mus musculus) | Activity [5]
1 | COc1cccc(/C=N/Nc2cc(C)nc3cc4c(cc23)OCO4)c1 | 197 | 229 | 4980 |  |  |  |  | 
2 | Clc1ccc2c(N/N=C/c3ccc(N4CCCC4)cc3)ccnc2c1 | 189 | 190 | 855 | 427 |  |  |  | 
3 | CN(C)c1ccc(/C=N/Nc2ccnc3cc(Cl)ccc23)cc1 | 325 | 383 | 308 | 1140 |  |  |  | 
4 | Cc1cc(N/N=C/c2ccc3c(c2)OCO3)c2ccc(Cl)cc2n1 | 122 | 281 |  |  |  |  |  | 
5 | COc1ccc(/C=N/Nc2ccnc3ccc(OC)cc23)cc1 |  |  | 65.1 |  | 38 |  |  | 
6 | COc1ccc2nccc(N/N=C/c3ccc4c(c3)OCO4)c2c1 | 132 | 197 |  |  |  |  |  | 
7 | Clc1ccc2c(N/N=C/c3cccnc3)ccnc2c1 | 607 | 814 |  |  |  |  |  | 
8 | Clc1ccc2c(N/N=C/c3cnc[nH]3)ccnc2c1 | 453 | 140 | 152 | 626 |  | 29100 |  | 
9 | COc1ccc2c(N/N=C/c3ccc4ccccc4n3)ccnc2c1 | 108 | 140 |  | 213 |  |  |  | 
10 | COc1ccc2nc(C)cc(N/N=C/c3ccc4c(c3)OCO4)c2c1 | 132 | 184 | 507 | 149 |  |  |  | 
11 | CCN(CC)c1ccc(/C=N/Nc2ccnc3c(OC)cccc23)cc1 | 442 | 791 | 206 | 125 |  |  |  | 
12 | Cc1cccc(/C=N/Nc2ccnc3cc(Cl)ccc23)n1 | > 3000 | 760 |  |  |  |  |  | 
13 | COc1ccc2nc3cc(Cl)ccc3c(N/N=C/c3ccc(CN4CCCC4)cc3)c2c1 |  |  |  |  | 19 |  | Active | 
14 | CCN(CC)c1ccc(/C=N/Nc2ccnc3cc(Cl)ccc23)cc1 | 175 | 250 | 300 |  |  |  |  | 
15 | Clc1ccc2c(N/N=C/c3ncc[nH]3)ccnc2c1 | 65.2 | 23.7 | 5.9 | 31.6 |  | 19500 |  | Dose-dependent effect
16 | O=C(NNc1ccnc2cc(Cl)ccc12)c1c[nH]cn1 | > 10000 | > 10000 | 8830 | > 10000 |  |  |  | 
17 | Cn1ccnc1/C=N/Nc1ccnc2cc(Cl)ccc12 | 197 | 86.9 | 61.5 | 270 |  | 17100 |  | 
18 | O=S(=O)(NNc1ccnc2cc(Cl)ccc12)c1cccc2ccccc12 | 4270 | 2530 | 2160 | 599 |  |  |  | 
19 | Cc1cccc(/C=N/Nc2cc(C)nc3cc(Cl)ccc23)n1 | 1160 | 1310 |  |  |  |  |  | 
20 | Clc1ccc2c(N/N=C/c3ccco3)ccnc2c1 | 949 | 1390 | 169 | 824 |  | 19900 |  | Dose-dependent effect
21 | COc1ccc2nccc(N/N=C/c3ccc4ccccc4n3)c2c1 | 73 | 96 | 125 | 159 |  |  |  | 
22 | COc1ccc2nccc(N/N=C/c3ccc(CN4CCCC4)cc3)c2c1 | 24.8 | 99.4 | 16.7 | 86.1 |  |  |  | 
23 | C(=N\Nc1c2c(nc3ccccc13)CCCC2)/c1ccc2c(c1)OCO2 | 618 | 923 |  |  |  |  |  | 

Row | Structure (SMILES) | IC50 (Plasmodium falciparum [1]) [nM] | IC50 (Plasmodium falciparum [2]) [nM] | IC50 (Plasmodium falciparum [3]) [nM] | IC50 (Plasmodium falciparum [4]) [nM] | Activity (Plasmodium berghei) [%] | EC50 (KB) [nM] | Activity (Mus musculus) | Activity [5]
24 | Clc1ccc2c(N/N=C/c3ccc4c(c3)OCO4)ccnc2c1 | 184 | 203 | 400 | 30.7 |  |  |  | 
25 | Cn1cncc1/C=N/Nc1ccnc2cc(Cl)ccc12 | 174 | 249 | 48.9 | 385 |  | 73800 |  | 
26 | CCOc1ccc2c(N/N=C/c3ccc(OC)cc3)cc(C)nc2c1 | 212 | 232 | 805 | 537 |  |  |  | 
27 | COc1ccc2nccc(N/N=C/c3ccc(N4CCCC4)cc3)c2c1 | 115 | 185 | 404 | 462 |  |  |  | 
28 | COc1ccc2nc3cc(Cl)ccc3c(N/N=C/c3ncc[nH]3)c2c1 |  |  |  |  | 40 | 5100 | Active | 
29 | Clc1ccc2c(N/N=C/c3ccc[nH]3)ccnc2c1 | 210 | 256 | 25.8 | 53.1 |  | 4800 |  | 
30 | COc1ccc(/C=N/Nc2ccnc3c(OC)cccc23)cc1 | 715 | 903 | 326 | 769 |  |  |  | 
31 | COc1cc2ccccc2cc1/C=N/Nc1ccnc2cc(Cl)ccc12 | 145 | 169 | 31.8 | 63.7 |  |  |  | 
32 | COc1ccc(/C=N/Nc2cc(C)nc3ccc(OC)cc23)cc1 | 103 | 150 | 31.1 | 62.3 |  |  |  | 
33 | O=C(NNc1ccnc2cc(Cl)ccc12)c1ncc[nH]1 | 6470 | > 10000 | 5460 | > 10000 |  |  |  | 
34 | CCN(CC)Cc1ccc(/C=N/Nc2ccnc3cc(Cl)ccc23)cc1 | 48.3 | 57.7 | 2.7 | 27.2 |  |  |  | 
35 | CCN(CC)c1ccc(/C=N/Nc2c3c(nc4ccccc24)CCCC3)cc1 | 986 | 1470 | 1080 |  |  |  |  | 
36 | FC(F)(F)c1ccc(-c2n[nH]cc2/C=N/Nc2ccnc3cc(Cl)ccc23)cc1 | 186 | 258 | 5 | 39.6 |  | 1200 |  | Dose-dependent effect
37 | CCN(CC)c1ccc(/C=N/Nc2ccnc3ccc(OC)cc23)cc1 | 142 | 166 | 22.9 | 172 |  |  |  | 
38 | Clc1ccc2c(N/N=C/c3ccncc3)ccnc2c1 | 570 | 627 |  |  |  |  |  | 
39 | COc1cccc2c(N/N=C/c3ccc4ccccc4n3)cc(C)nc12 | 404 | 324 | 789 | 117 |  |  |  | 
40 | C(=N\Nc1ccnc2cc3c(cc12)OCO3)/c1ccc(CN2CCCC2)cc1 | 35.6 | 46.5 | 26.7 | 58 |  |  |  | 
41 | Cc1noc(C)c1/C=N/Nc1ccnc2cc(Cl)ccc12 | 347 | 509 | 125 | 2130 |  | 171000 |  | 
42 | Clc1ccc2c(N/N=C/c3cccs3)ccnc2c1 | 504 | 855 | 167 | 577 |  | 10400 |  | 
43 | COc1ccc(/C=N/Nc2c3c(nc4ccccc24)CCCC3)cc1 | 942 | 2360 |  |  |  |  |  | 
44 | COc1ccc(/C=N/Nc2c3c(nc4cc(Cl)ccc24)CCCC3)cc1 | 760 | 1330 | 930 | 2640 |  |  |  | 
45 | Cc1ccc(S(=O)(=O)NNc2ccnc3cc(Cl)ccc23)cc1 | 5840 | 5060 | 3020 | 8460 |  |  |  | 
